Patent US4774381A, “Herbicide resistant tobacco” (E. I. Du Pont de Nemours and Company, priority 1985, dated 1988)

How the values were obtained:
Assay in all cases: Callus growth test
Format in all cases: cell-based, Nicotiana tabacum
[1] = tested on: Isolate 1 (+/+) cell line
Protocol: (§1) Callus growth tests were conducted substantially according to the following procedure. Approximately 50 mg callus tissue, grown on non-selective media, was spread over 7 cm diameter paper filter discs (Whatman No. 1), which were placed on the medium surface of petri dishes containing C1 agar media and varying concentrations of chlorsulfuron. The resulting cultures were incubated for 14 days at 25±1°, under fluorescent lamps programmed to provide a 16-hour photoperiod per day. At the conclusion of the incubation period, tissue was scraped from each filter disc and weighed. The final fresh weights were recorded, and means and standard errors of the means determined for all cases. The significance of differences between responses of individual cell lines to various concentrations of chlorsulfuron was determined at a probability level of 5% by a t-test for populations having different standard deviations, as described by Snedecor, et al., Statistical Methods (Iowa State University Press, Ames, Iowa, (1967), pp. 114-116).
(§2) The isolates tested were established from plants produced by self-fertilization of a S4/+ heterozygote produced by two successive backcrosses of a regenerated mutant plant to normal plants. In addition, growth responses were determined for cell cultures initiated from two individuals of the same genotype with respect to the S4 mutation. The genotypes of these cell lines were confirmed by progeny analyses of the plants from which they were derived. These precautions were intended to eliminate background variability which might otherwise obscure the effects of the resistance mutation.

[2] = tested on: Isolate 16 (S4/S4) cell line
Protocol: as §1, §2

[3] = tested on: Isolate 23 (S4/+) cell line; details: 14 days
Protocol: as §1, §2

[4] = tested on: Isolate 24 (S4/+) cell line; details: 14 days
Protocol: as §1, §2

[5] = tested on: Isolate 30 (S4/S4) cell line; details: 14 days
Protocol: as §1, §2

[6] = tested on: Isolate 7 (+/+) cell line; details: 14 days
Protocol: as §1, §2

[7] = Nicotiana tabacum, 336 h, chlorsulfuron 1.0 ppb, 14 days, read-out: % of fresh weight at 0 ppb
[8] = Nicotiana tabacum, 336 h, chlorsulfuron 3.0 ppb, 14 days, read-out: % of fresh weight at 0 ppb
[9] = Nicotiana tabacum, 336 h, chlorsulfuron 0.3 ppb, read-out: % of fresh weight at 0 ppb
[10] = Nicotiana tabacum, 336 h, chlorsulfuron 1.0 ppb, read-out: % of fresh weight at 0 ppb
[11] = Nicotiana tabacum, 336 h, chlorsulfuron 3.0 ppb, read-out: % of fresh weight at 0 ppb
[12] = Nicotiana tabacum, 336 h, chlorsulfuron 10.0 ppb, read-out: % of fresh weight at 0 ppb
[13] = Nicotiana tabacum, 336 h, chlorsulfuron 30.0 ppb, read-out: % of fresh weight at 0 ppb

COc1nc(C)nc(NC(=O)NS(=O)(=O)c2ccccc2Cl)n1 [Chlorsulfuron, chlorsulfuron]
significance of growth inhibition (t-test, 5%) ([1]; 0.1 ppb chlorsulfuron): significantly inhibited | activity at 0.0001 µg/mL ([1]; Nicotiana tabacum, 336 h, chlorsulfuron 0.1 ppb, 14 days, read-out: % of fresh weight at 0 ppb): 76.7% | activity at 0.0003 µg/mL ([1]; Nicotiana tabacum, 336 h, chlorsulfuron 0.3 ppb, 14 days, read-out: % of fresh weight at 0 ppb): 40.4% | activity at 0.001 µg/mL [1, 7]: 3.6% | activity at 0.003 µg/mL [1, 8]: 1.8% | Fr. Wt. ([1]; chlorsulfuron 0.1 ppb, 14 days): 2287 ± 198 mg | Fr. Wt. ([1]; chlorsulfuron 0.3 ppb, 14 days): 1204 ± 107 mg | Fr. Wt. ([1]; chlorsulfuron 1.0 ppb, 14 days): 106 ± 9 mg | Fr. Wt. ([1]; chlorsulfuron 3.0 ppb, 14 days): 55 ± 3 mg | activity at 0.001 µg/mL [2, 7]: 95.8% | activity at 0.003 µg/mL [2, 8]: 90% | activity at 0.01 µg/mL ([2]; Nicotiana tabacum, 336 h, chlorsulfuron 10.0 ppb, 14 days, read-out: % of fresh weight at 0 ppb): 95.5% | activity at 0.03 µg/mL ([2]; Nicotiana tabacum, 336 h, chlorsulfuron 30.0 ppb, 14 days, read-out: % of fresh weight at 0 ppb): 79.9% | significance of growth inhibition (t-test, 5%) ([2]; both homozygous mutant lines (Isolates 16 and 30), concentrations below 30 ppb): neither homozygous mutant cell was significantly inhibited | Fr. Wt. ([2]; chlorsulfuron 0.1 ppb, 14 days): 3755 ± 259 mg | Fr. Wt. ([2]; chlorsulfuron 0.3 ppb, 14 days): 3778 ± 219 mg | Fr. Wt. ([2]; chlorsulfuron 1.0 ppb, 14 days): 3148 ± 196 mg | Fr. Wt. ([2]; chlorsulfuron 3.0 ppb, 14 days): 2958 ± 161 mg | Fr. Wt. ([2]; chlorsulfuron 10.0 ppb, 14 days): 3171 ± 260 mg | Fr. Wt. ([2]; chlorsulfuron 30.0 ppb, 14 days): 2625 ± 202 mg | increase of tolerance of cultured cells by S4 mutation ([2]; homozygous lines at 30 ppb versus Isolate 7 at 0.3 ppb): at least 100 fold | activity at 0.0003 µg/mL [3, 9]: 95.8% | activity at 0.001 µg/mL [3, 10]: 93.8% | activity at 0.003 µg/mL [3, 11]: 89.9% | activity at 0.01 µg/mL [3, 12]: 57.6% | activity at 0.03 µg/mL [3, 13]: 28.1% | Fr. Wt. ([3]; chlorsulfuron 0.1 ppb): 2803 ± 153 mg | Fr. Wt. ([3]; chlorsulfuron 0.3 ppb): 2559 ± 174 mg | Fr. Wt. ([3]; chlorsulfuron 1.0 ppb): 2505 ± 134 mg | Fr. Wt. ([3]; chlorsulfuron 3.0 ppb): 2401 ± 218 mg | Fr. Wt. ([3]; chlorsulfuron 10.0 ppb): 1537 ± 90 mg | Fr. Wt. ([3]; chlorsulfuron 30.0 ppb): 749 ± 54 mg | activity at 0.0003 µg/mL [4, 9]: 98.9% | activity at 0.001 µg/mL [4, 10]: 87.5% | activity at 0.003 µg/mL [4, 11]: 73% | activity at 0.01 µg/mL [4, 12]: 76.4% | activity at 0.03 µg/mL [4, 13]: 55.1% | Fr. Wt. ([4]; chlorsulfuron 0.1 ppb): 2895 ± 187 mg | Fr. Wt. ([4]; chlorsulfuron 0.3 ppb): 2842 ± 124 mg | Fr. Wt. ([4]; chlorsulfuron 1.0 ppb): 2515 ± 155 mg | Fr. Wt. ([4]; chlorsulfuron 3.0 ppb): 2099 ± 129 mg | Fr. Wt. ([4]; chlorsulfuron 10.0 ppb): 2196 ± 235 mg | Fr. Wt. ([4]; chlorsulfuron 30.0 ppb): 1585 ± 129 mg | activity at 0.001 µg/mL [5, 10]: 98.4% | activity at 0.03 µg/mL [5, 13]: 90.3% | Fr. Wt. ([5]; chlorsulfuron 0.1 ppb): 3235 ± 159 mg | Fr. Wt. ([5]; chlorsulfuron 0.3 ppb): 3157 ± 76 mg | Fr. Wt. ([5]; chlorsulfuron 1.0 ppb): 2707 ± 250 mg | Fr. Wt. ([5]; chlorsulfuron 3.0 ppb): 3287 ± 136 mg | Fr. Wt. ([5]; chlorsulfuron 10.0 ppb): 2975 ± 139 mg | Fr. Wt. ([5]; chlorsulfuron 30.0 ppb): 2486 ± 170 mg | activity at 0.0001 µg/mL ([6]; Nicotiana tabacum, 336 h, chlorsulfuron 0.1 ppb, read-out: % of fresh weight at 0 ppb): 93.1% | activity at 0.0003 µg/mL [6, 9]: 59.8% | activity at 0.001 µg/mL [6, 10]: 9.2% | activity at 0.003 µg/mL [6, 11]: 2.5% | Fr. Wt. ([6]; chlorsulfuron 0.1 ppb): 2170 ± 94 mg | Fr. Wt. ([6]; chlorsulfuron 0.3 ppb): 1395 ± 116 mg | Fr. Wt. ([6]; chlorsulfuron 1.0 ppb): 215 ± 33 mg | Fr. Wt. ([6]; chlorsulfuron 3.0 ppb): 58 ± 4 mg
